A word on the IC50: it is the concentration that inhibits the measured activity by half. As usually defined, the inhibition is the share of the control response that was lost under treatment.

The text below walks through data of patent US8129417B2, “Substituted octahydrocyclopenta[C]pyrrol-4-amines as calcium channel blockers” (Abbott Laboratories, priority 2008, dated 2012).

Sequence of human Cav2.2 (Q00975 whole entry): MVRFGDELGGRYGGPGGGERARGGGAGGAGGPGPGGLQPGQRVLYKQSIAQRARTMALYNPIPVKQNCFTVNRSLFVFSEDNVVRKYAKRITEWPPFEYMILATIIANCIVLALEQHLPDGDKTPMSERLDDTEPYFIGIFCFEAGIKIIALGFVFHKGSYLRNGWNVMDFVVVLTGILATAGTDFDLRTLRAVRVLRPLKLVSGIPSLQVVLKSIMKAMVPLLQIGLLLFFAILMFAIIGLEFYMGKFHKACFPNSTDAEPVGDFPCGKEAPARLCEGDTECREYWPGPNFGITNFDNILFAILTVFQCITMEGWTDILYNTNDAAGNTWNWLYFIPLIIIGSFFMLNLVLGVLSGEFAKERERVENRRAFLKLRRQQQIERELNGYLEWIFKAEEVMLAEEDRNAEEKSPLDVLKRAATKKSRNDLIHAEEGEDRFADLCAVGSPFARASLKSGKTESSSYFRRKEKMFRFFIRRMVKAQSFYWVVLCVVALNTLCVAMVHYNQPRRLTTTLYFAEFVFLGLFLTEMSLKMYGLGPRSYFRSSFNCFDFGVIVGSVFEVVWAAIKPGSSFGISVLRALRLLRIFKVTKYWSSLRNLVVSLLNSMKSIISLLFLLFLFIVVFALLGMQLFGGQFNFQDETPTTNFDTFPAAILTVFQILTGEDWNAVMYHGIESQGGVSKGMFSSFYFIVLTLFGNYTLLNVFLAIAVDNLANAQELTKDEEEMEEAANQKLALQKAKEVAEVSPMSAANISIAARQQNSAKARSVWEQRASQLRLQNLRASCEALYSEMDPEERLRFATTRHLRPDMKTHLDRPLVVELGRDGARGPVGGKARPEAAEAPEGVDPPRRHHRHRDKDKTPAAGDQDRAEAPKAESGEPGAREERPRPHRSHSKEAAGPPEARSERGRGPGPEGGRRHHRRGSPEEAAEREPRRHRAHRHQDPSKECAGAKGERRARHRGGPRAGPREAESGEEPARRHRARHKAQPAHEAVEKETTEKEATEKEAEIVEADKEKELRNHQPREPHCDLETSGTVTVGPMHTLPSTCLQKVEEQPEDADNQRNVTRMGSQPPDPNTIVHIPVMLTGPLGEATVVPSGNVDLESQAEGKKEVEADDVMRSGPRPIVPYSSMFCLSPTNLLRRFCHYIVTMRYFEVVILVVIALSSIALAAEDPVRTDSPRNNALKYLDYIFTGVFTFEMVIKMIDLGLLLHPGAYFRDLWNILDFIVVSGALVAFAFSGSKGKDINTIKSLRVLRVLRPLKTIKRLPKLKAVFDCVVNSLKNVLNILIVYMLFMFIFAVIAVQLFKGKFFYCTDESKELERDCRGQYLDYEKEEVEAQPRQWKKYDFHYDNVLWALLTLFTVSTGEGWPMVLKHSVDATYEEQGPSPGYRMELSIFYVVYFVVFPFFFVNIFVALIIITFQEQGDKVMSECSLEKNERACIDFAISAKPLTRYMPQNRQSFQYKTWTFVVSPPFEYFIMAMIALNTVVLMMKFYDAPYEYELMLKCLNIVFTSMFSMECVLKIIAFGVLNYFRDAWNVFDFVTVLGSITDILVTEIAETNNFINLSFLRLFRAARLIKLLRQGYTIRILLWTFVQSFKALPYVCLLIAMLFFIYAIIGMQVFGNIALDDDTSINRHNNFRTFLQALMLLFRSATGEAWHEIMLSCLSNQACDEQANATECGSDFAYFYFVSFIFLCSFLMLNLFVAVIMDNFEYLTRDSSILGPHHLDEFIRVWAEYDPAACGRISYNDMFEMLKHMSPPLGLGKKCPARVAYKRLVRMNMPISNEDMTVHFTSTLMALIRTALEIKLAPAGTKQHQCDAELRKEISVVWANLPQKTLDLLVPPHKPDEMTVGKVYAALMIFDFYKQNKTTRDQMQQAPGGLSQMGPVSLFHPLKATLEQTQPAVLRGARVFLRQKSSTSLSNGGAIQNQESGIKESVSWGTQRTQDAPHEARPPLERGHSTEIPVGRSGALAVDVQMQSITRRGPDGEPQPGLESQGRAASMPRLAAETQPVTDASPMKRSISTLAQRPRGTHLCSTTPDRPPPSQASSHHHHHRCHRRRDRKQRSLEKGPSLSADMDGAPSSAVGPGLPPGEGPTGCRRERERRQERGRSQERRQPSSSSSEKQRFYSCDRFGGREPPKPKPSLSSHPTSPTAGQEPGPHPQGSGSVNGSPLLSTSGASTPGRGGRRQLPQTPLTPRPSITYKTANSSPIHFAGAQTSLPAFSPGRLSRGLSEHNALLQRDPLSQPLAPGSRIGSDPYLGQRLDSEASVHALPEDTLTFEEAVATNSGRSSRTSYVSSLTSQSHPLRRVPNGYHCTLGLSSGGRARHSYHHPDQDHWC
Sequence of human Cav2.2 (P54289 25-946 partner limits assumed): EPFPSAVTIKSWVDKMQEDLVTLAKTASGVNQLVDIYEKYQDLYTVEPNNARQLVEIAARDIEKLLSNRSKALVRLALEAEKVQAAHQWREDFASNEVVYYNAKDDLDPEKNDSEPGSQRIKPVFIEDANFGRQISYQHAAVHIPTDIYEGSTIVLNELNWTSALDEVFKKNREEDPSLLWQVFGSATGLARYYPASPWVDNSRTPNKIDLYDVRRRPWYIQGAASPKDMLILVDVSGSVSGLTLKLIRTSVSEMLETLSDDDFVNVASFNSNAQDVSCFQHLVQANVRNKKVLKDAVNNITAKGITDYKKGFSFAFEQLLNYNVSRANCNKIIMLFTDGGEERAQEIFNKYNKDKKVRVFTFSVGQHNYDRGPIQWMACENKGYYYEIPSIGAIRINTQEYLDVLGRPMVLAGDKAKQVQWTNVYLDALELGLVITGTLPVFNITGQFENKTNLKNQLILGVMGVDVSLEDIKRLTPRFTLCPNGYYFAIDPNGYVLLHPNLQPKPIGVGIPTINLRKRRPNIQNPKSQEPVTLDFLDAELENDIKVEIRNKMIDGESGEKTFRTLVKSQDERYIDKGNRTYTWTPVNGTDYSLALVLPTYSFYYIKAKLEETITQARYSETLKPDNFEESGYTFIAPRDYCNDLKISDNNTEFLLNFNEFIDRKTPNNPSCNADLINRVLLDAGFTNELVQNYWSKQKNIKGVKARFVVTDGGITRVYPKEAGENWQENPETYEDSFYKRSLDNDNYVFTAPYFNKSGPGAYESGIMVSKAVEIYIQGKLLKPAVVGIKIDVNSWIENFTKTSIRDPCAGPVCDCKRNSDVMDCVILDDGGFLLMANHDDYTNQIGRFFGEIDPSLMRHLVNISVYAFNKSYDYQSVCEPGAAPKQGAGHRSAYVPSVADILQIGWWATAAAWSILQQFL
Sequence of human Cav2.2 (P54289 947-1103 partner limits assumed): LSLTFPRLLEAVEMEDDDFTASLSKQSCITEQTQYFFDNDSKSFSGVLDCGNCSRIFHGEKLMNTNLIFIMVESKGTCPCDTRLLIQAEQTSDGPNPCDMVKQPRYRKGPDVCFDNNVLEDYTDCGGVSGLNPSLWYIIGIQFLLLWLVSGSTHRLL
Sequence of human Cav2.2 (P54284 whole entry partner): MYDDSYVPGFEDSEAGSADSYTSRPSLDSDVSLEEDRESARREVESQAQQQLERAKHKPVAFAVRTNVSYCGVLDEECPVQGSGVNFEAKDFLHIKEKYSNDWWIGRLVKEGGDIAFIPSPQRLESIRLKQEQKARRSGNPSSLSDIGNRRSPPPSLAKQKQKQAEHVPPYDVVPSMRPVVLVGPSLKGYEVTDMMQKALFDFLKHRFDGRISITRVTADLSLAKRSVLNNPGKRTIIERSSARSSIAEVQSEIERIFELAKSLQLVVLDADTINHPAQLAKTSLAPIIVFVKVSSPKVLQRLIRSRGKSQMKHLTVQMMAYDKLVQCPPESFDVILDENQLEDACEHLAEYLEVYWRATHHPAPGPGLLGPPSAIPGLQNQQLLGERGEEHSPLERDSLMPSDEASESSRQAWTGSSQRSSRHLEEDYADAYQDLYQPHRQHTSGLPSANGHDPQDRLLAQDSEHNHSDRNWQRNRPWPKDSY

In the first assay the target is human Cav2.2 (Homo sapiens, UniProt Q00975). Put plainly: Assessment of calcium channel activity using FLIPR (Ca2+ influx in IMR32 cells). The format is cell-based. Particulars: 3 minute pre-incubation with compound (*), 2 μM nifedipine, depolarized with 80 mM KCl. How it is done:
(i) In Vitro Methods—Assessment of Calcium Channel Activity Using FLIPR:
The IMR32 cells were maintained in MEM media containing 10% (v/v) FBS, 1% (v/v) antibiotic/antimitotic, 1% (v/v) sodium pyruvate and 1% (v/v) MEM NEAA. Following dissociation in 0.05% (v/v) trypsin/EDTA, cells were seeded into black 1×96-well plates (Corning Cellbind) at a density of 1-1.2×10^5 cells/well and incubated in the maintenance media above for 48 hours at 37° C. […] To determine the IC50 values, the percent inhibition of the compound at each concentration was determined relative to the activity in the absence of inhibitor, and data was fitted using non-linear regression sigmoidal dose response curve analysis with GraphPad Prism®.
Consider `O=C(N[C@H]1CC[C@H]2CN(Cc3ccccc3)C[C@H]21)C1(c2ccccc2)CCCC1` (relative stereo) [Example 1, N-[(3aS*,4S*,6aR*)-2-benzyloctahydrocyclopenta[c]pyrrol-4-yl]-1-phenylcyclopentanecarboxamide], for which the IC50 came out at 3500 nM.
Regarding `O=C(N[C@@H]1CC[C@H]2CN(Cc3ccccc3)C[C@H]21)C1(c2ccccc2)CCCC1` (relative stereo) [Example 2, N-[(3aS*,4R*,6aR*)-2-benzyloctahydrocyclopenta[c]pyrrol-4-yl]-1-phenylcyclopentanecarboxamide], the IC50 worked out at 4200 nM.
The same measure, in the same setting: the value for `CC(C)C(C(=O)N[C@@H]1CC[C@@H]2CN(Cc3ccccc3)C[C@@H]21)c1ccccc1` (relative stereo) [Example 5, N-[(3aR*,4R*,6aS*)-2-benzyloctahydrocyclopenta[c]pyrrol-4-yl]-3-methyl-2-phenylbutanamide] was 3800 nM; that for `CC(C)C(C(=O)N[C@H]1CC[C@@H]2CN(Cc3ccccc3)C[C@@H]21)c1ccccc1` (relative stereo) [Example 6, N-[(3aR*,4S*,6aS*)-2-benzyloctahydrocyclopenta[c]pyrrol-4-yl]-3-methyl-2-phenylbutanamide] was 2200 nM; that for `O=C(N[C@H]1CC[C@H]2CN(Cc3ccccc3)C[C@H]21)C(c1ccccc1)C1CCCC1` (relative stereo) [Example 7, N-[(3aS*,4S*,6aR*)-2-benzyloctahydrocyclopenta[c]pyrrol-4-yl]-2-cyclopentyl-2-phenylacetamide] was 1800 nM.
As for `O=C(N[C@H]1CC[C@H]2CN(Cc3ccccc3)C[C@H]21)C1(c2ccccc2)CCCCC1` (relative stereo) [Example 9, N-[(3aS*,4S*,6aR*)-2-benzyloctahydrocyclopenta[c]pyrrol-4-yl]-1-phenylcyclohexanecarboxamide], the IC50 amounted to 1800 nM.
Consider `O=C(N[C@@H]1CC[C@H]2CN(Cc3ccccc3)C[C@H]21)C1(c2ccccc2)CCCCC1` (relative stereo) [Example 10, N-[(3aS*,4R*,6aR*)-2-benzyloctahydrocyclopenta[c]pyrrol-4-yl]-1-phenylcyclohexanecarboxamide], for which the IC50 stood at 1300 nM.

The assay is the same for the next values; noted with them: 60 minute pre-incubation with compound, 2 μM nifedipine, depolarized with 80 mM KCl.
`O=C(N[C@H]1CC[C@H]2CN(Cc3ccccc3)C[C@H]21)C(C1CCCCC1)C1CCCCC1` (relative stereo) [Example 11, N-[(3aS*,4S*,6aR*)-2-benzyloctahydrocyclopenta[c]pyrrol-4-yl]-2,2-dicyclohexylacetamide]: the IC50 turned out to be 4000 nM.
`CC(C)C(C(=O)N[C@H]1CC[C@H]2CN(Cc3cccc(C(F)(F)F)c3)C[C@H]21)c1ccccc1` (relative stereo) [Example 122, 3-methyl-2-phenyl-N-{(3aS*,4S*,6aR*)-2-[3-(trifluoromethyl)benzyl]octahydrocyclopenta[c]pyrrol-4-yl}butanamide]: the IC50 stood at 600 nM.
For `O=C(N[C@H]1CC[C@H]2CN(Cc3cccc(C(F)(F)F)c3)C[C@H]21)C(C1CCCCC1)C1CCCCC1` (relative stereo) [Example 124, 2,2-dicyclohexyl-N-{(3aS*,4S*,6aR*)-2-[3-(trifluoromethyl)benzyl]octahydrocyclopenta[c]pyrrol-4-yl}acetamide], the IC50 amounted to 700 nM.
On the same count and under the same terms, the value for `CCC(CC)C(=O)N[C@H]1CC[C@H]2CN(Cc3cccc(C(F)(F)F)c3)C[C@H]21` (relative stereo) [Example 125, 2-ethyl-N-{(3aS*,4S*,6aR*)-2-[3-(trifluoromethyl)benzyl]octahydrocyclopenta[c]pyrrol-4-yl}butanamide] was 2800 nM.
Turning to `CCCC(CCC)C(=O)N[C@H]1CC[C@H]2CN(Cc3cccc(C(F)(F)F)c3)C[C@H]21` (relative stereo) [Example 126, 2-propyl-N-{(3aS*,4S*,6aR*)-2-[3-(trifluoromethyl)benzyl]octahydrocyclopenta[c]pyrrol-4-yl}pentanamide], the IC50 was determined as 1000 nM.
Regarding `O=C(N[C@H]1CC[C@H]2CN(Cc3cccc(C(F)(F)F)c3)C[C@H]21)C1CCCCC1` (relative stereo) [Example 127, N-{(3aS*,4S*,6aR*)-2-[3-(trifluoromethyl)benzyl]octahydrocyclopenta[c]pyrrol-4-yl}cyclohexanecarboxamide], the IC50 was found to be 1500 nM.
In the case of `O=C(N[C@H]1CC[C@H]2CN(Cc3cccc(C(F)(F)F)c3)C[C@H]21)C1CCCCCC1` (relative stereo) [Example 128, N-{(3aS*,4S*,6aR*)-2-[3-(trifluoromethyl)benzyl]octahydrocyclopenta[c]pyrrol-4-yl}cycloheptanecarboxamide], the IC50 amounted to 1000 nM.
As to `O=C(N[C@H]1CC[C@H]2CN(Cc3cccc(C(F)(F)F)c3)C[C@H]21)C1CCCC1` (relative stereo) [Example 129, N-{(3aS*,4S*,6aR*)-2-[3-(trifluoromethyl)benzyl]octahydrocyclopenta[c]pyrrol-4-yl}cyclopentanecarboxamide], the IC50 was 2900 nM.
Same read-out and setting: the result for `O=C(CC(c1ccccc1)c1ccccc1)N[C@H]1CC[C@H]2CN(Cc3cccc(C(F)(F)F)c3)C[C@H]21` (relative stereo) [Example 131, 3,3-diphenyl-N-{(3aS*,4S*,6aR*)-2-[3-(trifluoromethyl)benzyl]octahydrocyclopenta[c]pyrrol-4-yl}propanamide] reads 700 nM.
Turning to `O=C(N[C@H]1CC[C@H]2CN(Cc3cccc(C(F)(F)F)c3)C[C@H]21)C(c1ccccc1)c1ccccc1` (relative stereo) [Example 135, 2,2-diphenyl-N-{(3aS*,4S*,6aR*)-2-[3-(trifluoromethyl)benzyl]octahydrocyclopenta[c]pyrrol-4-yl}acetamide], the IC50 amounted to 900 nM.
Still for that read-out and setting: the result for `O=C(N[C@H]1CC[C@H]2CN(Cc3cccc(C(F)(F)F)c3)C[C@H]21)C(c1ccc(F)cc1)c1ccc(F)cc1` (relative stereo) [Example 136, 2,2-bis(4-fluorophenyl)-N-{(3aS*,4S*,6aR*)-2-[3-(trifluoromethyl)benzyl]octahydrocyclopenta[c]pyrrol-4-yl}acetamide] reads 1100 nM; that for `CC(C)C[C@H](NC(=O)OC(C)(C)C)C(=O)N[C@@H]1CC[C@@H]2CN(Cc3cccc(C(F)(F)F)c3)C[C@@H]21` (relative stereo) [Example 137, N^2-(tert-butyloxycarbonyl)-N^1-{(3aR*,4R*,6aS*)-2-[3-(trifluoromethyl)benzyl]octahydrocyclopenta[c]pyrrol-4-yl}-L-leucinamide], 600 nM; that for `O=C(CC(c1ccccc1)c1ccccc1)N[C@@H]1CC[C@H]2CN(Cc3cccc(C(F)(F)F)c3)C[C@H]21` (relative stereo) [Example 141, 3,3-diphenyl-N-{(3aS*,4R*,6aR*)-2-[3-(trifluoromethyl)benzyl]octahydrocyclopenta[c]pyrrol-4-yl}propanamide], 600 nM.
Consider `c1ccc(CN2C[C@@H]3CC[C@@H](NC4CC4)[C@@H]3C2)cc1` (relative stereo) [Example 197, (3aS*,4R*,6aR*)-2-benzyl-N-cyclopropyloctahydrocyclopenta[c]pyrrol-4-amine], for which the IC50 stood at 69700 nM.
Same read-out and setting: the result for `c1ccc(CN2C[C@@H]3CC[C@H](NC4CC4)[C@@H]3C2)cc1` (relative stereo) [Example 198, (3aS*,4S*,6aR*)-2-benzyl-N-cyclopropyloctahydrocyclopenta[c]pyrrol-4-amine] reads 40400 nM; that for `O=S(=O)(c1cccc(C(F)(F)F)c1)N(C1CC1)[C@@H]1CC[C@H]2CN(Cc3ccccc3)C[C@H]21` (relative stereo) [Example 200, N-[(3aS*,4R*,6aR*)-2-benzyloctahydrocyclopenta[c]pyrrol-4-yl]-N-cyclopropyl-3-(trifluoromethyl)benzenesulfonamide], 1000 nM; that for `O=S(=O)(c1cccc(C(F)(F)F)c1)N(C1CC1)[C@H]1CC[C@H]2CNC[C@H]21` (relative stereo) [Example 201, N-cyclopropyl-N-[(3aS*,4S*,6aR*)-octahydrocyclopenta[c]pyrrol-4-yl]-3-(trifluoromethyl)benzenesulfonamide], 5200 nM.
Still for that read-out and setting: the result for `O=S(=O)(N[C@H]1CC[C@H]2CN(Cc3cccc(C(F)(F)F)c3)C[C@H]21)c1cccc(C(F)(F)F)c1` (single isomer, unassigned) [Example 186, 3-(trifluoromethyl)-N-{(3aS*,4S*,6aR*)-2-[3-(trifluoromethyl)benzyl]octahydrocyclopenta[c]pyrrol-4-yl}benzenesulfonamide] reads 600 nM.

Staying with this assay, now noted: IMR-32, @ 10 μM, 3 minute pre-incubation (*), read-out: percent inhibition.
Turning to `CC(C)C(C(=O)N1C[C@H]2CC[C@H](NCc3ccccc3)[C@H]2C1)c1ccccc1` (relative stereo) [Example 216, (3aR*,4S*,6aS*)-N-benzyl-2-(3-methyl-2-phenylbutanoyl)octahydrocyclopenta[c]pyrrol-4-amine], the inhibition at 10 µM is 85%.
On to `C[C@H](C(=O)N[C@@H]1CC[C@H]2CN(Cc3ccccc3)C[C@H]21)c1ccccc1` [Example 19, (2S)—N-[(3aS,4R,6aR)-2-benzyloctahydrocyclopenta[c]pyrrol-4-yl]-2-phenylpropanamide], for which the inhibition at 10 µM was determined as 25%.

Still in this assay, the particulars now being: IMR-32, @ 10 μM, 60 minute pre-incubation, read-out: percent inhibition.
As for `O=C(N[C@@H]1CC[C@@H]2CN(Cc3ccccc3)C[C@@H]21)C(c1ccccc1)C1CCCCC1` (relative stereo) [Example 3, N-[(3aR*,4R*,6aS*)-2-benzyloctahydrocyclopenta[c]pyrrol-4-yl]-2-cyclohexyl-2-phenylacetamide], the inhibition at 10 µM was found to be 91%.
